# Patent US9788546B2, “Synergistic pesticidal compositions and related methods” (DOW AGROSCIENCES LLC, priority 2013, dated 2017)
# Where two headings read alike, the source gives them in different places.
# Key:
# Assay type in all cases: in vivo
# [1] = system: brown stink bugs, Euschistus heros; experiment: Field spray and mesh cage test with bifenthrin, average mortality at 1, 2, 4, and 7 days; conditions: 1, 2, 4, and 7 days after treatment
# Method: Two emulsifying concentrate pesticidal compositions with a weight ratio of compound I to bifenthrin of 1:1 were prepared. The first comprising 0.0167 weight % of compound I and about 0.0167 weight % of bifenthrin and the second comprising 0.0333 weight % compound I and 0.0333 weight % bifenthrin. The compositions were diluted and applied to the field using a spray volume of […]. The application was done using a CO2 backpack sprayer with a solid cone nozzle TXVK-8 (ConeJet). Plants were allowed to air dry and then were placed in a mesh cage where different instar stink bugs were infested in two different trials (3rd and 4th nymphal stage, and adults). Average stink bug mortality was assessed at 1, 2, 4, and 7 days after application counting the number of dead insects and calculating the percent control based on the survivorship in the untreated treatment.
# The average percent control of the pesticidal composition against brown stink bugs, Euschistus heros, was determined as the “Average Observed” action, and compared to the average of those obtained by using about 0.0167 weight %, 0.0333 weight %, and 0.0667 weight % of compound I alone, and the average of those obtained using about 0.0167 weight % and 0.0333 weight % of bifenthrin alone. The “Colby's Expected Action” was calculated using Colby's equation as discussed previously. […]
# [2] = system: brown stink bug, Euschistus heros; experiment: Bean piece dip bioassay, third-instar nymphs; conditions: Compound I alone, 0.04 weight %
# Method: The active compounds were formulated in a 10% acetone solution with 0.025% non-ionic surfactant, TWEEN® 20. Bioassays were performed for each different active solution. Bean pieces (about one inch-long) were used for the tests. Four bean pieces were placed in each tested active solution and left there for 10 minutes. Bean pieces were taken out of the active solution, and each piece was placed in a well in a 32-well tray and allowed to air dry. Three third-instar nymphs of brown stink bug, Euschistus heros, were infested into each well. The percent control of the pesticidal composition against brown stink bug, Euschistus heros, was determined as the “Observed” action, and compared to those obtained by using about 0.04 weight % of compound I, and using about 0.0025 weight % of lambda-cyhalothrin alone. The “Colby's Expected Action” was calculated using Colby's equation as discussed previously.
# [3] = system: brown stink bug, Euschistus servus (Say); experiment: Field test, backpack sprayer, natural stink bug infestation; conditions: Compound I alone
# Method: (§1) Dyne-Amic at 0.625% V/V was used as an adjuvant in the tank mix, and the application was done using a backpack sprayer. Trial was conducted under a natural stink bug infestation. Numbers of adults and nymphs were counted four days after application in 1.82 meters of row per plot using a shake sheet (0.91 meters by 2 rows).
# (§2) The “Colby's Expected Action” was calculated using Colby's equation as discussed previously.
# as §2, §2
# [4] = system: green stink bugs, Nezara viridula; experiment: as above; conditions: Compound I alone, 0.0306 weight %
# Method: as §1, §2
# [5] = system: brown stink bugs, Euschistus heros; experiment: Field spray and mesh cage test with alpha-cypermethrin, average mortality at 1 and 3 days; conditions: 1 and 3 days after treatment
# Method: Two emulsifying concentrate pesticidal compositions with a weight ratio of compound I to alpha-cypermethrin of 1:1 were prepared. The first comprising 0.0167 weight % of compound I and about 0.0167 weight % of alpha-cypermethrin and the second comprising 0.0333 weight % compound I and 0.0333 weight % alpha-cypermethrin. The compositions were diluted and applied to the field using a spray volume of […]. The application was done using a CO2 backpack sprayer with a solid cone nozzle TXVK-8 (ConeJet). Plants were allowed to air dry and then were placed in a mesh cage where different instar stink bugs were infested (3rd and 4th nymphal stage, and adults). Average stink bug mortality was assessed at 1 and 3 days after application counting the number of dead insects and calculating the percent control based on the survivorship in the untreated.
# The average percent control of the pesticidal composition against brown stink bugs, Euschistus heros, was determined as the “Average Observed” action, and compared to the average of those obtained by using about 0.0167 weight %, 0.0333 weight %, and 0.0667 weight % of compound I alone, and the average of those obtained using about 0.0167 weight % and 0.0333 weight % of alpha-cypermethrin alone. The “Colby's Expected Action” was calculated using Colby's equation as discussed previously. […]
# [6] = system: Western flower thrips, Frankliniella occidentalis (Pergande); experiment: Cotton leaf punch dip bioassay, mortality of nymphs; conditions: Compound II alone, 0.04 weight %; Example 5
# Method: The active compounds were formulated in a 10% acetone solution with 0.025% non-ionic surfactant, TWEEN® 20. Cotton leaf punches were used for bioassays. Two cotton leaf punches were placed in each solution and left there for 10 minutes. Leaves were taken out of the solution, placed on a piece of filter paper in separated Petri dishes, and air dried. Each leaf disc was considered a repetition. Five nymph of Western flower thrips, Frankliniella occidentalis, were infested per repetition. The assessment of mortality was done three days after infestation. The percent control of the pesticidal composition Western flower thrips, Frankliniella occidentalis (Pergande), was determined as the “Observed” action, and compared to those obtained by using about 0.04 weight % of compound II, and using about 0.02 weight % of lambda-cyhalothrin alone. The “Colby's Expected Action” was calculated using Colby's equation as discussed previously.
# The active compounds were formulated in a 10% acetone solution with 0.025% non-ionic surfactant, TWEEN® 20. Cotton leaf punches were used for bioassays. Two cotton leaf punches were placed in each solution and left there for 10 minutes. Leaves were taken out of the solution, placed on a piece of filter paper in separated Petri dishes, and air dried. Each leaf disc was considered a repetition. […]
# [7] = system: brown stink bug, Euschistus heros; experiment: Diet treatment bioassay, second-instar nymphs; conditions: Compound II alone, 0.04 weight %
# [8] = system: Lygus bug, Lygus hesperus (Knight); experiment: Treated string bean bioassay, four-day old nymphs; conditions: Compound II alone, 0.04 weight %
# Method: String beans were treated with different active compounds for ten minutes. Three four-day old nymphs of Lygus bug, Lygus hesperus (Knight), were infested onto each bean sample.
# [9] = system: stink bugs (Edessa meditabunda, Euschistus heros, and Piezodorus guildinii); conditions: Compound II alone, field test
# Method: […] Silwet L-77 at 0.1% V/V was used as an adjuvant in the tank mix, and the application was done using a CO2 backpack sprayer. Trial was conducted under a natural stink bug infestation. […] The stink bug population consisted on about 75% Edessa meditabunda, 20% of Euschistus heros, and 5% Piezodorus guildinii.
# This was about 48% improvement over the Colby's expected action.
# [10] = Compound I alone (1:0), average of 0.0167, 0.0333 and 0.0667 weight %
structure (smiles),measurement,setting,value
"Cc1c(COC(=O)[C@@H]2[C@H](/C=C(\Cl)C(F)(F)F)C2(C)C)cccc1-c1ccccc1 (racemic) [Bifenthrin, bifenthrin, reference compound]",Average % Control,"[1]; Bifenthrin alone (0:1), average of 0.0167 and 0.0333 weight %",41.6%
"CCN(C(=O)CCSCCC(F)(F)F)c1cn(-c2cccnc2)nc1Cl [Compound I, N-(3-chloro-1-(pyridin-3-yl)-1H-pyrazol-4-yl)-N-ethyl-3-((3,3,3-trifluoropropyl)thio)propanamide]",% Control Four Days After Treatment,[2],17%
same,% Control Four Days After Treatment,[3]; 0.0306 weight %,15.15%
same,% Control Four Days After Treatment,[3]; 0.0459 weight %,15.15%
same,% Control Four Days After Treatment,[4]; Example 11A,7.39%
same,% Control Four Days After Treatment,[4]; Example 11B,11.94%
same,Average % Control,[1]; [10],9.34%
same,Average % Control,[5]; [10],6.93%
"CC1(C)C(C=C(Cl)Cl)C1C(=O)OC(C#N)c1cccc(Oc2ccccc2)c1 (stereo not drawn) [alpha-Cypermethrin, alpha-cypermethrin, reference compound]",Average % Control,"[5]; alpha-Cypermethrin alone (0:1), average of 0.0167 and 0.0333 weight %",21.1%
"CCN(C(=O)CC[S+]([O-])CCC(F)(F)F)c1cn(-c2cccnc2)nc1Cl (stereo not drawn) [Compound II, N-(3-chloro-1-(pyridin-3-yl)-1H-pyrazol-4-yl)-N-ethyl-3-((3,3,3-trifluoropropyl)sulfinyl)propanamide]",% Control Three Days After Treatment,[6],20%
same,% Control After Six Days of Treatment,[7],0%
same,% Control Five Days After Treatment,[8],25%
same,% Control Three Days After Treatment,[9]; 0.10 weight %,12.5%
same,% Control Three Days After Treatment,[9]; 0.13 weight %,18.8%
same,% Control Three Days After Treatment,[9]; 0.20 weight %,6.3%
